Experimental data from patent US11098016B2, “Indazole derivatives useful as glucagon receptor antagonists” (JANSSEN PHARMACEUTICA NV, priority 2016, dated 2021).

Biological target: T1, human GCGR (Homo sapiens, UniProt P47871)
T1 construct: expressed in transfected cells; host or cells: HEK293 (hGluc-1HEK), pcDNA3.1, G418 selection
Experiment: Cellular functional assay, cAMP readout: inhibition of glucagon stimulated cAMP
Assay type: cell-based
Conditions: not given
Protocol: IC50 Values in Cellular Functional Assays: cAMP Readout
Full-length human GCGR (Accession Number: NM000160) subcloned into pcDNA3.1 was stably transfected into HEK293 cells (hGluc-1HEK) and maintained under G418 selection (500 μg/mL). Cell cultures were maintained in DMEM/F12 media supplemented with 10% FBS and 1% GlutaMax™ Supplement (Available from ThermoFisher Scientific, catalog #35050061). Glucagon stimulated cAMP was quantified using LANCE technology as per manufacturer instructions. On the day of the experiment, spent media was removed and cells were washed with Hank's Buffered Saline solution (HBSS), and cells harvested with non-enzymatic cell dissociation solution, then washed once with HBSS. Cells were re-suspended in stimulation buffer at a concentration of 0.83×10^6 cells/ml and cAMP detection antibody was added. 6 μl/well of this solution was then dispensed in a 384 well plate (cell density 5000 cells/well). Test compound was serially diluted in DMSO and 50 nl were dispensed on top of the cell solution and allowed to incubate for 30 minutes. 6 μl of a 2× glucagon solution (final concentration in assay 100 pM) was then added and the reaction was terminated after 5 minutes with the addition of detection mix. The resulting mixture was incubated, protected from light for 1.5 h. cAMP levels were quantified by TR-FRET in an EnVision instrument against a known standard. IC50's were generated by using a non-linear regression macro driven in Excel and converted to Ki values.

T1 sequence (P47871 26-477): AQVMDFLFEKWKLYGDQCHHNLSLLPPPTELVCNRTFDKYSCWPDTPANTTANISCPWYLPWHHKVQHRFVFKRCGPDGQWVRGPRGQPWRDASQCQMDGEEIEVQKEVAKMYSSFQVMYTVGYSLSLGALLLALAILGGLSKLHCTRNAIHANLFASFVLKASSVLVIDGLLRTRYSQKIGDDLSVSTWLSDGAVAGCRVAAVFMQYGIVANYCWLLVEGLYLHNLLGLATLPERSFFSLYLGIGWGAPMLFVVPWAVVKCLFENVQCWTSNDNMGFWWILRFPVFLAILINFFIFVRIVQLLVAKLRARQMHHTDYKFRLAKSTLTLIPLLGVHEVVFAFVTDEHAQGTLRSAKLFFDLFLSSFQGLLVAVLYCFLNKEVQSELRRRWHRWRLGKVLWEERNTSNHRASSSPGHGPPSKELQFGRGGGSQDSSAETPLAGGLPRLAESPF

Question: How did the Ki turn out when CC(C)CC(c1ccc(CNCCC(=O)O)cc1)n1ncc2cc(-c3ccc(OC(F)(F)F)cc3)ccc21 (stereo not shown) [Compound 10, 3-((4-(3-Methyl-1-(5-(4-(trifluoromethoxy)phenyl)-1H-indazol-1-yl)butyl)benzyl)amino)propanoic Acid] was run?
Answer: 285 nM

Question: How did the Ki turn out when COc1ccc(-c2ccc3c(cnn3C(CC(C)C)c3ccc(CNCCC(=O)O)cc3)c2)cc1 (stereo not shown) [Compound 38, 3-((4-(1-(5-(4-Methoxyphenyl)-1H-indazol-1-yl)-3-methylbutyl)benzyl)amino)propanoic Acid] was run?
Answer: 650 nM

Question: For Cc1cc(C(F)(F)F)ccc1-c1ccc2c(cnn2C(CC(C)C)c2ccc(CNCCC(=O)O)cc2)c1 (stereo not shown) [Compound 84, 3-((4-(3-Methyl-1-(5-(2-methyl-4-(trifluoromethyl)phenyl)-1H-indazol-1-yl)butyl)benzyl)amino)propanoic Acid], which Ki is on record?
Answer: 85 nM

Question: With O=C(O)CCNC(=O)c1ccc(C(CCc2ccccc2)n2cc3cc(-c4ccc(C(F)(F)F)cc4)ccc3n2)cc1 (stereo not shown) [Compound 104] as the compound, how does the Ki read?
Answer: 145 nM

Question: How did the Ki turn out when CC(C)CC(c1ccc(CNCCC(=O)O)cc1)n1ncc2cc(-c3cc(Cl)cc(Cl)c3)ccc21 (stereo not shown) [Compound 118, 3-((4-(1-(5-(3,5-Dichlorophenyl)-1H-indazol-1-yl)-3-methylbutyl)benzyl)amino)propanoic Acid] was run?
Answer: 2250 nM

Question: With O=C(O)CCNC(=O)c1ccc(C(CCc2ccccc2)n2ncc3cc(-c4ccc(C(F)(F)F)cc4)ccc32)cc1 (stereo not shown) [Compound 142] as the compound, how does the Ki read?
Answer: 850 nM

Question: With Cc1cc(Cl)ccc1-c1ccc2nn(C(CCC3CCCCC3)c3ccc(C(=O)NCCC(=O)O)nc3)cc2c1 (stereo not shown) [Compound 184] as the compound, how does the Ki read?
Answer: 71 nM

Question: With O=C(O)CCNC(=O)c1ccc(C(CCC2CCCCC2)n2cc3cc(-c4ccc(C(F)(F)F)cc4)ccc3n2)cn1 (stereo not shown) [Compound 186] as the compound, how does the Ki read?
Answer: 275 nM

Question: How did the Ki turn out when COCCC(c1ccc(C(=O)NCCC(=O)O)cc1)n1cc2cc(-c3ccc(C(F)(F)F)cc3)ccc2n1 (stereo not shown) [Compound 202] was run?
Answer: 1100 nM

Test system: glucagon receptor
Experiment: Glucagon challenge in vivo assay measuring blood glucose (normal dog glucagon challenge test)
Conditions: male beagle dogs; 10 mg/kg oral gavage
Protocol: Glucagon Challenge In Vivo Assay Measuring Blood Glucose
The efficacy of a glucagon receptor antagonist was evaluated using a normal dog glucagon challenge test. Male beagle dogs were overnight fasted prior to the study. Test compound (at 3 mg/kg and 10 mg/kg for Compound #196 and at 10 mg/kg for Compounds #180, #248 and #253) or vehicle (0.5% hydroxypropyl methylcellulose) was dosed via oral gavage. Ninety minutes later, the dogs (1.5 years old, ˜9 Kg) were submitted to a glucagon challenge test by a single intramuscular injection of glucagon (Glucagon, rDNA origin, Eli Lilly, Indianapolis, Ind.) at dose of […]. Blood glucose levels were determined at times −10 min, 0 min (on challenge), 10 min, 20 min, 30 min, and 60 min after glucagon injection.

Question: How did the “blood glucose levels during glucagon challenge time compared with vehicle treated group” value turn out when Cc1c(-c2ccc(C(F)(F)F)cc2Cl)ccc2nn([C@@H](CC(C)C)c3ccc(C(=O)NCCC(=O)O)cc3)cc12 [Compound 180, 3-[[4-[(1S)-1-[5-[2-Chloro-4-(trifluoromethyl)phenyl]-4-methyl-indazol-2-yl]-3-methyl-butyl]benzoyl]amino]propanoic Acid] was run?
Answer: markedly reduced blood glucose levels
